Patent US10815210B2, “Benzocyclobutane derivatives useful as dual SGLT1 / SGLT2 modulators” (Janssen Pharmaceutica NV, priority 2016, dated 2020)

Assays:
[1] = target: T1, human SGLT1 (Homo sapiens, UniProt P13866); assay: SGLT1 assay: Na-dependent 14C-AMG uptake in CHO-K1 cells stably expressing human SGLT1; type: cell-based; details: for IC50: 500 μM AMG, 2 hours at 37° C.
T1 construct: expressed in transfected cells; host or cells: CHO-K1
T1 sequence (P13866 1-664): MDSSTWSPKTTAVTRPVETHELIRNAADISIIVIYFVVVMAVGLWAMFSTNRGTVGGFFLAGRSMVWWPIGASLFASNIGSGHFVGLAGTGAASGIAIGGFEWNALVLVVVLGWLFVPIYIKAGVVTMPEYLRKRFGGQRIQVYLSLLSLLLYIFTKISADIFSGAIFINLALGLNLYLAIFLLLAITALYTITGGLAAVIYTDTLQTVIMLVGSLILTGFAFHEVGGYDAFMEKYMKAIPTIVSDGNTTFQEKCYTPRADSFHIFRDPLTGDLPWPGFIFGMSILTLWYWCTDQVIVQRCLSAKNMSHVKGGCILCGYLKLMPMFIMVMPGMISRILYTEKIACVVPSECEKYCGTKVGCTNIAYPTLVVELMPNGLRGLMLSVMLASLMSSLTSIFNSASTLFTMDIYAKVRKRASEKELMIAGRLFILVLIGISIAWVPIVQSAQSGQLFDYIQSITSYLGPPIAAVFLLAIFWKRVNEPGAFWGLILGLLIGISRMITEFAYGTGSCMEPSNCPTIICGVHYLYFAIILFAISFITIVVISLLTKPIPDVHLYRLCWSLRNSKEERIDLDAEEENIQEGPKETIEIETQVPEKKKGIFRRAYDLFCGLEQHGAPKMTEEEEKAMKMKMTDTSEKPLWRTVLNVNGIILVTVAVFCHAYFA
Procedure: (§1) SGLT1 and SGLT2 were cloned in form of cDNA from human small intestine (Genbank M24847), and from human kidney (Genbank M95549), respectively. Subsequently, each full cDNA was subcloned into pcDNA with each construct's integrity verified through follow-on sequencing. To generate CHO-K1 cells that stably express human SGLT1 or human SGLT2, CHO-K1 cells were transfected using DMRIE-C reagent (Life Technologies, Gaithersburg, Md.). Transfected cells were then selected in the presence of 500 μg/ml of the Geneticin (G418 Cellgro Catalog No. 30234-CI)
(§2) Individual clones were then characterized using the following cell-based assay for sodium-dependent glucose transport:
(§3) Inhibition of SGLT1 and SGLT2 activity was assessed in CHO K1 cells stably expressing either human SGLT1 or SGLT2, using the SGLT specific glucose analog methyl-glucopyranoside (Sigma Catalog No. M-9376). Cells were plated (45,000 cells/well) in white wall 96-well plates (COSTAR, Cat#3903) for 24 hours in growth medium, then a final concentration of 10 mM Na-Butyrate (ALDRICH Cat#30341-0) was added. The cells were incubated for 24 hours. On the day of the assay, cells were rinsed and treated with test compounds (at concentrations of 0.001 μM to 10 μM) in assay buffer (50 mM HEPES, 20 mM Tris base, 5 mM KCl, 1 mM MgCl2, 1 mM CaCl2 and 137 mM NaCl, pH 7.4) for 10 minutes. Cells were then incubated with ^14C-a-methyl-d-glucopyranoside (AMG, Amersham Catalog No. CFB 76), using 0.07 μCi per well in 500 μM AMG final concentration. The cells were incubated for 2 hours at 37° C. with 5% CO2 and washed two times with ice-cold Phosphate Buffer Solution (Cellgro Catalog No. 21030-CV). The cells were then solubilized by adding 60 μl of MICROSCINT™20 and the Na-dependent ^14C-AMG uptake was quantified by measuring radioactivity. Plates were counted in a TopCount (Packard, Meriden, Conn.)

[2] = target: T2, human SGLT2 (Homo sapiens, UniProt P31639); assay: SGLT2 assay: Na-dependent 14C-AMG uptake in CHO-K1 cells stably expressing human SGLT2; type: cell-based; details: for IC50: 500 μM AMG, 2 hours at 37° C.
T2 construct: expressed in transfected cells; host or cells: CHO-K1
T2 sequence (P31639 1-672): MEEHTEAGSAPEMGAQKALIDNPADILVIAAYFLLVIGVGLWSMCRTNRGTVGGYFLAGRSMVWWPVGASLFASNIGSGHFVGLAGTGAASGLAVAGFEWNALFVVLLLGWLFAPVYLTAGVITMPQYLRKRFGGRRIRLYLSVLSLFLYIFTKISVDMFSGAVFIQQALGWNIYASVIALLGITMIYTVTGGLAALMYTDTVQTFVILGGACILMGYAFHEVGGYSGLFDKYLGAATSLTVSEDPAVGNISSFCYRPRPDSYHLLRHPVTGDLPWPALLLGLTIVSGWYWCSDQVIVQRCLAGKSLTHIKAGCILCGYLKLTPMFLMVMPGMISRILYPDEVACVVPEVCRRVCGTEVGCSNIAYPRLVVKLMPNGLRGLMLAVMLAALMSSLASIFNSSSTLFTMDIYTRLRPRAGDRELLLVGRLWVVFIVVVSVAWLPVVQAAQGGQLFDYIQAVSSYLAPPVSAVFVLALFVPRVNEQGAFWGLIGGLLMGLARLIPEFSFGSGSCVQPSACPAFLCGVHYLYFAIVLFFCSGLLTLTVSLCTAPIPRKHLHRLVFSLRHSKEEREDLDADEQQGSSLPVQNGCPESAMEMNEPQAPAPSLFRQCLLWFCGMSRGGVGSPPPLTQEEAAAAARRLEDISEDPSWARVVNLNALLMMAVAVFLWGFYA
Procedure: as §1, §2, §3

IC50 [1]	IC50 [2]	inhibition at 0.3 µM [1]	inhibition at 0.03 µM [2]	Compound
14 nM	7 nM	–	–	Cc1c(Cc2ccc3c(c2)CC3)cc([C@@H]2O[C@H](CO)[C@@H](O)[C@H](O)[C@H]2O)c(O)c1I [Compound 120]
30 nM	8 nM	–	–	[2H]C1([2H])Cc2cc(Cc3cc([C@@H]4O[C@H](CO)[C@@H](O)[C@H](O)[C@H]4O)ccc3OC)ccc21 (single isomer, unassigned) [Compound 82]
–	–	41%	26%	OC[C@H]1O[C@@H](c2ccc(Cl)c(Cc3ccc4c(c3)CC4)c2)[C@H](O)[C@@H](O)C1(F)F [Compound 106]
32 nM	1 nM	–	–	CCOc1cc(CC)c(Cc2ccc3c(c2)CC3)cc1[C@@H]1O[C@H](CO)[C@@H](O)[C@H](O)[C@H]1O [Compound 105]
33 nM	2 nM	–	–	Cc1ccc([C@@H]2O[C@H](CO)[C@@H](O)[C@H](O)[C@H]2O)cc1C(F)(F)c1ccc2c(c1)CC2 [Compound 141]
–	–	53%	55.5%	CCc1cc(OC(F)F)c([C@@H]2O[C@H](CO)[C@@H](O)[C@H](O)[C@H]2O)cc1Cc1ccc2c(c1)CC2 [Compound 122]
14 nM	2 nM	–	–	Cc1cc(O)c([C@@H]2O[C@H](CO)C(F)(F)[C@H](O)[C@H]2O)cc1Cc1ccc2c(c1)CC2 [Compound 92, (2S,3R,4R,6R)-2-(5-(bicyclo[4.2.0]octa-1(6),2,4-trien-3-ylmethyl)-2-hydroxy-4-methylphenyl)-5,5-difluoro-6-(hydroxymethyl)tetrahydro-2H-pyran-3,4-diol]
64 nM	1 nM	–	–	[2H]C1([2H])Cc2cc(Cc3cc([C@@H]4O[C@H](CO)[C@@H](O)[C@H](O)[C@H]4O)c(OC)cc3Cl)ccc21 [Compound 83, (2S,3R,4R,5S,6R)-2-(5-{[(7,7-dideuterium)bicyclo[4.2.0]octa-1(6),2,4-trien-3-yl]methyl}-4-chloro-2-methoxyphenyl)-6-(hydroxymethyl)oxane-3,4,5-triol]

More lines, now with the values behind:

Compound	IC50 [1]	IC50 [2]	inhibition at 0.3 µM [1]	inhibition at 0.03 µM [2]
COc1cc(O)c([C@@H]2O[C@H](CO)[C@@H](O)[C@H](O)[C@H]2O)cc1Cc1ccc2c(c1)CC2 [Compound 10, (2S,3R,4R,5S,6R)-2-(5-((1,2-dihydrocyclobutabenzen-4-yl)methyl)-2-hydroxy-4-methoxyphenyl)-6-(hydroxymethyl)-tetrahydro-2H-pyran-3,4,5-triol]	5 nM	1 nM	–	–
[2H]C1([2H])Cc2ccc(Cc3cc([C@@H]4O[C@H](CO)[C@@H](O)[C@H](O)[C@H]4O)ccc3OC)cc21 (single isomer, unassigned) [Compound 64]	93 nM	4 nM	–	–
COc1cc(C2CC2)c(Cc2ccc3c(c2)CC3)cc1[C@@H]1O[C@H](CO)[C@@H](O)[C@H](O)[C@H]1O [Compound 15, (2S,3R,4R,5S,6R)-2-(5-(bicyclo[4.2.0]octa-1(6),2,4-trien-3-ylmethyl)-4-cyclopropyl-2-methoxyphenyl)-6-(hydroxymethyl)oxane-3,4,5-triol]	–	–	67%	31%
[2H]C1([2H])Cc2ccc(Cc3cc([C@@H]4O[C@H](CO)[C@@H](O)[C@H](O)[C@H]4O)c(OC)cc3CC)cc21 [Compound 69, (2S,3R,4R,5S,6R)-2-(5-[(8,8-Hz)bicyclo[4.2.0]octa-1(6),2,4-trien-3-ylmethyl]-4-ethyl-2-methoxyphenyl)-6-(hydroxymethyl)oxane-3,4,5-triol]	50 nM	5 nM	–	–
[2H]C1([2H])Cc2ccc(Cc3cc([C@@H]4O[C@H](CO)[C@@H](O)[C@H](O)[C@H]4O)ccc3Cl)cc21 (single isomer, unassigned) [Compound 62]	168 nM	9 nM	–	–
OC[C@H]1O[C@@H](c2cc(Cc3ccc4c(c3)CC4)c(Cl)cc2OC(F)F)[C@H](O)[C@@H](O)[C@@H]1O [Compound 37, (2S,3R,4R,5S,6R)-2-(4-chloro-2-(difluoromethoxy)-5-((1,2-dihydrocyclobutabenzen-4-yl)methyl)phenyl)-6-(hydroxymethyl)-tetrahydro-2H-pyran-3,4,5-triol]	–	–	20%	84%
[2H]C1([2H])Cc2ccc(Cc3cc([C@@H]4O[C@H](CO)[C@@H](O)[C@H](O)[C@H]4O)c(O)cc3C)cc21 (single isomer, unassigned) [Compound 61]	7 nM	4 nM	–	–
COc1cc(F)c(Cc2ccc3c(c2)CC3)cc1[C@@H]1O[C@H](CO)[C@@H](O)[C@H](O)[C@H]1O [Compound 20, (2S,3R,4R,5S,6R)-2-(5-((1,2-dihydrocyclobutabenzen-4-yl)methyl)-4-fluoro-2-methoxyphenyl)-6-(hydroxymethyl)-tetrahydro-2H-pyran-3,4,5-triol]	–	–	24%	77%
[2H]C([2H])(c1ccc2c(c1)CC2)c1cc([C@@H]2O[C@H](CO)[C@@H](O)[C@H](O)[C@H]2O)ccc1C [Compound 51]	35 nM	1 nM	–	–
Cc1cc(OC(F)(F)F)c([C@@H]2O[C@H](CO)[C@@H](O)[C@H](O)[C@H]2O)cc1Cc1ccc2c(c1)CC2 [Compound 33, (2S,3R,4R,5S,6R)-2-(5-((1,2-dihydrocyclobutabenzen-4-yl)methyl)-4-methyl-2-(trifluoromethoxy)phenyl)-6-(hydroxymethyl)-tetrahydro-2H-pyran-3,4,5-triol]	–	–	23%	57%
OC[C@H]1O[C@@H](c2ccc(Cl)c(Cc3ccc4c(c3)CC4)c2)[C@H](O)[C@@H](O)[C@@H]1O [Compound 2, (2S,3R,4R,5S,6R)-2-(4-chloro-3-((1,2-dihydrocyclobutabenzen-4-yl)methyl)phenyl)-6-(hydroxymethyl)-tetrahydro-2H-pyran-3,4,5-triol]	45 nM	1 nM	–	–
COc1cc(C#N)c(Cc2ccc3c(c2)CC3)cc1[C@@H]1O[C@H](CO)[C@@H](O)[C@H](O)[C@H]1O [Compound 18, 2-((1,2-dihydrocyclobutabenzen-4-yl)methyl)-5-methoxy-4-((2S,3R,4R,5S,6R)-3,4,8-trihydroxy-6-(hydroxymethyl)-tetrahydro-2H-pyran-2-yl)benzonitrile]	–	–	25%	74%
[2H]C1([2H])Cc2ccc(Cc3cc([C@@H]4O[C@H](CO)[C@@H](O)[C@H](O)[C@H]4O)c(OC)cc3Cl)cc21 [Compound 67, (2S,3R,4R,5S,6R)-2-(5-{[(8,8-dideuterium)bicyclo[4.2.0]octa-1(6),2,4-trien-3-yl]methyl}-4-chloro-2-methoxyphenyl)-6-(hydroxymethyl)oxane-3,4,5-triol]	48 nM	2 nM	–	–
